From patent publication US8168628B2, “Conjugated psychotropic drugs and uses thereof” (Ramot at Tel-Aviv University Ltd., priority 2001, dated 2012)
Like-named read-outs stand apart in the source and are kept apart here.

How the values were obtained:
ICR mice = test: Acute toxicity in vivo (LD50) in mice; conditions: single intraperitoneal dose, compared with perphenazine (FIG. 21)
Description: (§1) Toxicity: In vitro toxicity was determined by measuring the effect of the tested compounds (either known neuroleptics or the chemical conjugates of the invention) on primary cultures of neurons and whole brain neuron and glia cells obtained from the brains of neonatal mice. In vitro toxicity of perphenazine and its chemical conjugate AN 168 was also determined with rat myocytes. Acute toxicity in vivo as determined by the LD50 was evaluated on 2 months old ICR mice following the administration of a single intraperitoneal bolus-dose of drug.
(§2) The in vivo toxicity of perphenazine and AN 167 was evaluated following the intraperitoneal administration of a single dose thereof to mice.

in vivo = conditions: ICR, mouse, in vivo, ip
Description: as §1, §2

MES SA DX5 (MDR) = test: Proliferation test, MES SA DX5 (MDR) cells; format: cell-based; conditions: Homo sapiens, linear regression of survival percentage
Description: (§3) Cell lines: Human prostate carcinoma (PC-3), human colon carcinoma (HT-29), murine melanoma (B-16) and its drug resistant subclone (B-16 MDR), mouse fibroblasts (3T3), myeloid leukemia (HL 60) and its drug resistant subclone (HL 60 MX2), endometrium cell line (MES SA) and its drug resistant subclone (MES DX5), jurkat T lymphoma and monocyte leukemia (U-937), were used in this study.
(§4) Proliferation of cancer and normal cells: Proliferation was measured by neutral red assay or by a fluorometric assay quantitating DNA content. In the neutral red assay, the neutral red is absorbed by lysosomes, thus causing coloring of living cells. Quantitative analysis is performed by colorimetric assay (ELISA reader at 550 nm). In the fluorometric assay, alamar blue is used as a redox indicator. Alamar blue fluorescence was measured at an excitation wavelength of 544 nm and an emission wavelength of […] (FLUOstar BMG Lab Technologies, Offenburg, Germany).
(§5) The cells were sub-cultured and the tested compounds were added thereto in increasing concentrations. The IC50 values were determined by linear regression of the survival percentage of the cells.

HL 60 MX2 (MDR) = test: Proliferation test, HL 60 MX2 (MDR) cells; format: cell-based; conditions: Homo sapiens, HL60/MX2; linear regression of survival percentage
Description: as §3, §4, §5

U-937 = test: Proliferation test, U-937 cells; format: cell-based; conditions: Homo sapiens, linear regression of survival percentage
Description: as §3, §4, §5

3T3 = test: Proliferation test, 3T3 fibroblasts; format: cell-based; conditions: Mus musculus, NIH3T3; linear regression of survival percentage
Description: as §3, §4, §5

HL 60 = test: Proliferation test, HL 60 cells; format: cell-based; conditions: Homo sapiens, linear regression of survival percentage
Description: as §3, §4, §5

rats [1] = test: Catalepsy in rats, “wall” test
Description: (§6) Animals: Young adult male rats (150-230 grams) were purchased from Harlan (Israel). Animals were divided 2-5/cage and housed in controlled conditions in the animal room for a week prior to the experiments. The experiments were conducted with naive animals, in a double blind procedure. In each experiment various treatment groups (about 5-10 animals each) were tested.
(§7) Catalepsy in rats: The manifestation of the extrapyramidal adverse effects induced by typical neuroleptics was evaluated by the appearance of stereotypic cataleptic behavior in rats following the neuroleptic treatment. Catalepsy was determined by two methods: (i) by measuring the time it took an animal hanging on a cage wall to move its hind legs and reach a flat surface (the “wall” test); and (ii) rats were placed on a flat surface with their anterior limbs leaning on a flat bar (5.5 cm height) resembling a piano playing position. Catalepsy was determined by the time it took an animal to descend and reach the flat surface (the “piano” test). The maximum time of follow up was 2 minutes and these measurements were performed hourly and individually for each animal. These tests provide an assessment of central dopamine (DA) blocking activity and are acceptable criteria for extrapyramidal symptoms induced by anti-psychotic drugs [10].
(§8) A control animals group was treated with the vehicle (lactic acid) only.

B16 = test: Proliferation test, B16 melanoma cells; format: cell-based, murine; conditions: for IC50: Mus musculus, B16, linear regression of survival percentage
Description: as §3, §4, §5

prolactin = test: Prolactin blood level in rats (enzyme immunometric assay); format: in vivo, rat; conditions: i.p.; measured at 0, 60 and 120 min after treatment
Description: Prolactin secretion: Typical neuroleptics induce hyperprolactinemia, which is frequently associated with gallactorehea and impaired gonadal and sexual function. The measurement of the circulatory plasma prolactin level was therefore used as a sensitive biochemical marker for the psychotropic activity of the known neuroleptics and the chemical conjugates of the present invention, following intraperitoneal or oral administration thereof. Thus, blood was collected from the punctured eye orbital of rats under ether anesthesia and the assay was performed using Millennia, rat prolactin enzyme immunometric assay-kit (DPC, USA).

rats [2] = test: Behavioral criteria: sedation and mobility score in rats; conditions: score 0-3; for sedation and mobility score, 30 min / sedation and mobility score, 60 min / sedation and mobility score, 90 min / sedation and mobility score, 120 min / sedation and mobility score, 180 min / sedation and mobility score, 240 min: i.p., 5 mg/kg perphenazine, 7.5 mg/kg fluphenazine or equimolar conjugate; for Sedation score: oral, 4-6 hours after treatment
Description: The effect of the administration of the tested compound on animals behavior was measured by evaluating the degree of animal sedation and mobility following the treatment described hereinabove, using a score of from 0 to 3. A score of 0 represents active and mobile animals, 1 represents calm and mobile animals, 2 represents calm and immobile animals and 3 represents completely ataxic and non-alert animals.

MES SA = test: Proliferation test, MES SA cells; format: cell-based; conditions: Homo sapiens, linear regression of survival percentage
Description: as §3, §4, §5

Jurkat T lymphoma cells = test: Proliferation / viability test, Jurkat T lymphoma cells; format: cell-based; conditions: Homo sapiens
Description: as §3, §4, §5

PC-3 = test: Proliferation test, PC-3 cells; format: cell-based; conditions: Homo sapiens, linear regression of survival percentage
Description: as §3, §4, §5

B16 MDR = test: Proliferation test, B16 MDR cells; format: cell-based, murine; conditions: Mus musculus; linear regression of survival percentage
Description: as §3, §4, §5

Normal rat fibroblasts = test: Proliferation test, normal rat fibroblasts; format: cell-based; conditions: Fibroblast, linear regression of survival percentage
Description: The primary cultures of rat fibroblasts were obtained from neonatal rats using known procedures.
as §4, §5

HT-29 = test: Proliferation test, HT-29 cells; format: cell-based; conditions: Homo sapiens, linear regression of survival percentage
Description: as §3, §4, §5

rats [3] = conditions: rat, in vivo, ip, 5 mg/kg
Description: as §6, §7, §8

rat myocytes = conditions: Wistar, rat
Description: as §1

mice = test: Catalepsy in mice (bar between two cages); format: in vivo, mouse; conditions: adult male mice, 1.5 mg/kg perphenazine or equimolar dose (FIG. 7a)
Description: Young adult male and female mice were purchased from Harlan, Israel. The animals were housed for 4-7 days under controlled conditions prior to experimentation. Experiments were conducted in a double blind procedure. In each experiment various treatment groups (about 10 animals each) were tested.
Catalepsy in mice: The appearance of stereotypic cataleptic behavior in mice following the neuroleptic treatment was measured in two different sets of experiments.
The catalepsy was determined using a system of two cages and a bar therebetween. The mouse was hung in the middle of the bar, and the percentage of animals reaching the target within 2 minutes was monitored 1 hour, 2 hours and 3 hours following the treatment.
The catalepsy was determined using the system described hereinabove. The mouse was hung in the middle of the bar, and the time it took the animal to reach the target was measured.

C6 rat glioma cells [4] = test: DNA fragmentation in C6 rat glioma cells (propidium iodide flow cytometry); format: cell-based; conditions: Cisplatin 30 μM; perphenazine 25 and 50 μM; AN 168 25, 50 μM (FIG. 18)
Description: Apoptosis and DNA fragmentation: Fragmentation of cell nuclei was studied by flow cytometric analysis of propidium iodide-stained cells. This analysis was performed using a FACScan (Becton Dickinson, Mountain View, Calif.) equipped with an argon ion laser adjusted to an excitation wavelength of 480 nm and with a Doublet Discrimination Module (DDM). Lysis II (Becton Dickinson) software was used for data acquisition. Apoptotic nuclear changes were evaluated according to the criteria of Nicolletti et al..
The DNA fragmentation was determined by the propidium iodide flow cytometric method described hereinabove.

rats [5] = test: Catalepsy in rats, “piano” test, oral administration; format: in vivo, rat; conditions: oral, 10 and 20 mg/kg perphenazine or equimolar doses of conjugate
Description: To this end, the induced catalepsy, the prolactin blood levels and the animal behavior were measured as described hereinabove, following oral administration of either AN 168 or perphenazine alone to rats. Animals, divided 5 per cage, were treated by oral administration of perphenazine or AN-168 dissolved in 1% lactic acid. Control animals received vehicle (lactic acid) only.
The catalepsy induced by oral administration of various concentrations of AN 168 and perphenazine was measured by the “wall” test and the “piano” test described hereinabove. The time course of catalepsy was measured 4-24 hours following oral administration of 2.5, 5, 10 and 20 mg/kg perphenazine and respective equimolar doses of 3.5, 7, 14 and 28 mg/kg AN-168. The total catalepsy represents the sum of average catalepsy per treated group during the 4-24 hours of follow-up.

C6 rat glioma cells [6] = test: Viability of C6 rat glioma cells (neutral red); format: cell-based; conditions: Rattus norvegicus, Glioma cell; 24 hours treatment, neutral red, up to 100 μM (FIG. 14)
Description: as §4
The cells were sub-cultured and the tested compounds were added thereto in increasing concentrations, up to 100 μM.

[7] = linear regression of survival percentage, read-out: IC50, JURKAT

For `CCCC(=O)OCCN1CCN(CCCN2c3ccccc3Sc3ccc(Cl)cc32)CC1` [AN-167, Perphenazine Butyrate], the “time course of mortality” value (ICR mice) was “delayed”, the LD50 at 2 weeks (in vivo) was 120 mg/kg and the IC50 (MES SA DX5 (MDR)) was 20.9 µM. For the same compound, the IC50 (HL 60 MX2 (MDR)) was 19.9 µM, the IC50 (U-937) was 23.3 µM and the IC50 (3T3) was 21.7 µM. The IC50 (HL 60) was 17.3 µM, the “average of total catalepsy as percentage of the perphenazine-induced catalepsy” value (rats [1]; equimolar doses, four independent experiments (FIG. 6)) was “lower catalepsy as compared with perphenazine” and the “induced catalepsy, SAR studies” value (rats [1]; i.p., 5 mg/kg perphenazine and equimolar conjugates, compared with perphenazine (FIG. 2)) was “significant reduction of the induced catalepsy”. The total catalepsy (rats [1]; i.p., 5 mg/kg perphenazine and equimolar conjugates, sum of determinations at 0, 60, 120 min (FIG. 1a)) was “did not induce catalepsy at all”, the total catalepsy (rats [1]; i.p., 5 mg/kg perphenazine, 7.5 mg/kg fluphenazine, equimolar conjugates, sum 0-420 min, normalized to parent drug (FIG. 3a)) was “reduced catalepsy significantly” and the “time course of catalepsy” value (rats [1]; i.p., over a period of 7 hours (FIGS. 4a, 4b)) was “reduced catalepsy as compared with perphenazine”. For the same compound, the IC50 (B16) was 17.3 ± 4.5 µM, the “effect on the proliferation of B16 murine melanoma cells” value (B16; representative experiment (FIG. 13)) was “relatively active as anti-proliferative drugs” and the “time at which prolactin blood level peaked” value (prolactin) was 60 min. The “sedation and mobility score, 30 min” value (rats [2]) was 0, the “sedation and mobility score, 60 min” value (rats [2]) was 1 and the “sedation and mobility score, 90 min” value (rats [2]) was 1. For the same compound, the “sedation and mobility score, 120 min” value (rats [2]) was 2, the “sedation and mobility score, 180 min” value (rats [2]) was 2 and the “sedation and mobility score, 240 min” value (rats [2]) was 2. The IC50 (MES SA) was 17.2 µM, the IC50 (Jurkat T lymphoma cells; [7]) was 11.4 µM and the IC50 (PC-3) was 49.1 µM. It also gave an IC50 (B16 MDR) of 41.5 ± 1.8 µM, an IC50 (Normal rat fibroblasts) of 31.6 µM and an IC50 (HT-29) of 13.3 ± 2.4 µM.
In the case of `OCCN1CCN(CCCN2c3ccccc3Sc3ccc(Cl)cc32)CC1` [Perphenazine, perphenazine, reference compound], the LD50 at 2 weeks (in vivo) is reported as 109 mg/kg, the IC50 (MES SA DX5 (MDR)) is reported as 16.2 µM and the “time at which catalepsy peaked” value (rats [3]; male) is reported as 2 h. For the same compound, the total catalepsy (rats [3]) was “catalepsy was induced”, the “decrease in cells viability” value (rat myocytes) was 20% and the IC50 (HL 60 MX2 (MDR)) was 22.6 µM. It also gave an IC50 (U-937) of 21.3 µM, an IC50 (3T3) of 26.6 µM and an IC50 (HL 60) of 19.8 µM. The IC50 (B16) was 12.5 ± 1.29 µM, the “catalepsy: percentage of animals reaching the target within 2 minutes” value (mice) was “higher catalepsy” and the “time at which prolactin blood level peaked” value (prolactin) was 60 min. The “sedation and mobility score, 30 min” value (rats [2]) was 1, the “sedation and mobility score, 60 min” value (rats [2]) was 2 and the “sedation and mobility score, 90 min” value (rats [2]) was 2. The “sedation and mobility score, 120 min” value (rats [2]) was 3, the “sedation and mobility score, 180 min” value (rats [2]) was 2 and the “sedation and mobility score, 240 min” value (rats [2]) was 2. It also gave a Sedation score (rats [2]; 2.5 mg/kg) of 0, a Sedation score (rats [2]; 5 mg/kg) of 1 and a Sedation score (rats [2]; 10 mg/kg) of 2. The Sedation score (rats [2]; 20 mg/kg) was 3, the DNA fragmentation (C6 rat glioma cells [4]) was “induced a dramatically increase in DNA fragmentation” and the IC50 (MES SA) was 15.3 µM. The IC50 (Jurkat T lymphoma cells; alamar blue method (FIG. 15), read-out: IC50, Jurkat T lymphoma cells viability) was 16 µM, the IC50 (Jurkat T lymphoma cells; [7]) was 11.3 µM and the IC50 (PC-3) was 23.1 ± 2.3 µM. The “muscular rigidity and tachypnea” value (rats [5]) was “muscular rigidity and tachypnea were observed”, the IC50 (B16 MDR) was 18.4 ± 5.4 µM and the IC50 (C6 rat glioma cells [6]) was 19.2 µM. The IC50 (HT-29) was 8.85 ± 2.7 µM.
